ChEMBL document CHEMBL1201862, “PubChem BioAssay data set” (2004)
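The compound was tested at five concentrations on cells cultured in 96-well plates, with a 48-hour exposure period. Here, GI50 denotes the concentration required for 50% inhibition of growth.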 Calls of active or inactive are those of the source. Rule as the data show it: active = GI50 up to about 1.1 µM and inactive = higher.

Tests used:
Test in all cases: NCI-60 cell line screen, 48 h
A498 = test system: A498
A549 = test system: A549
CCRF-CEM = test system: CCRF-CEM
HOP-92 = test system: HOP-92
HT-29 = test system: HT-29
Hs-578T = test system: Hs-578T
IGROV-1 = test system: IGROV-1
NCI-H226 = test system: NCI-H226
NCI-H23 = test system: NCI-H23
OVCAR-3 = test system: OVCAR-3
OVCAR-8 = test system: OVCAR-8
SK-OV-3 = test system: SK-OV-3
SN12C = test system: SN12C
SNB-19 = test system: SNB-19
SNB-75 = test system: SNB-75
SW-620 = test system: SW-620
UACC-257 = test system: UACC-257
UACC-62 = test system: UACC-62
SK-MEL-28 = test system: SK-MEL-28
HCC 2998 = test system: HCC 2998

CSc1ncc2c(n1)-c1ccccc1OC2N1CCCC1 (configuration not stated)
GI50 (A498): 11.8 µM (inactive)
GI50 (A549): > 100 µM (inactive)
GI50 (CCRF-CEM): 58.5 µM (inactive)
GI50 (HOP-92): > 100 µM (inactive)
GI50 (HT-29): > 100 µM (inactive)
GI50 (Hs-578T): 39.1 µM (inactive)
GI50 (IGROV-1): 47.8 µM (inactive)
GI50 (NCI-H226): 31 µM (inactive)
GI50 (NCI-H23): > 100 µM (inactive)
GI50 (OVCAR-3): 47.4 µM (inactive)
GI50 (OVCAR-8): > 100 µM (inactive)
GI50 (SK-OV-3): > 100 µM (inactive)
GI50 (SN12C): 71 µM (inactive)
GI50 (SNB-19): > 100 µM (inactive)
GI50 (SNB-75): 41.7 µM (inactive)
GI50 (SW-620): 94.8 µM (inactive)
GI50 (UACC-257): > 100 µM (inactive)
GI50 (UACC-62): 26.4 µM (inactive)

CN1C(=O)NC(=O)/C(=C\Nc2ncccn2)C1=O
GI50 (A498): > 100 µM (inactive)
GI50 (A549): > 100 µM (inactive)
GI50 (HOP-92): > 100 µM (inactive)
GI50 (HT-29): > 100 µM (inactive)
GI50 (Hs-578T): > 100 µM (inactive)
GI50 (IGROV-1): > 100 µM (inactive)
GI50 (NCI-H226): > 100 µM (inactive)
GI50 (NCI-H23): > 100 µM (inactive)
GI50 (OVCAR-3): > 100 µM (inactive)
GI50 (OVCAR-8): > 100 µM (inactive)
GI50 (SK-MEL-28): > 100 µM (inactive)
GI50 (SK-OV-3): > 100 µM (inactive)
GI50 (SN12C): > 100 µM (inactive)
GI50 (SNB-19): > 100 µM (inactive)
GI50 (SNB-75): > 100 µM (inactive)
GI50 (SW-620): > 100 µM (inactive)
GI50 (UACC-257): > 100 µM (inactive)
GI50 (UACC-62): > 100 µM (inactive)

Cc1ccccc1C(=N)c1ccccc1Cc1cccc2ccccc12
GI50 (A498): 30.8 µM (inactive)
GI50 (A549): 25.1 µM (inactive)
GI50 (CCRF-CEM): 15.4 µM (inactive)
GI50 (HCC 2998): 17.5 µM (inactive)
GI50 (HOP-92): 17.1 µM (inactive)
GI50 (HT-29): 16.1 µM (inactive)
GI50 (Hs-578T): 4.63 µM (inactive)
GI50 (IGROV-1): 28.9 µM (inactive)
GI50 (NCI-H226): 17.1 µM (inactive)
GI50 (NCI-H23): 24.5 µM (inactive)
GI50 (OVCAR-3): 13.1 µM (inactive)
GI50 (OVCAR-8): 32 µM (inactive)
GI50 (SK-MEL-28): 20.7 µM (inactive)
GI50 (SK-OV-3): 26.3 µM (inactive)
GI50 (SN12C): 19.2 µM (inactive)
GI50 (SNB-19): 56.1 µM (inactive)
GI50 (SW-620): 21.2 µM (inactive)
GI50 (UACC-257): 25.6 µM (inactive)
GI50 (UACC-62): 15.1 µM (inactive)

O=[N+]([O-])c1ccc2c(c1)Sc1ccccc1N2CCCCCl
GI50 (A498): > 100 µM (inactive)
GI50 (A549): > 100 µM (inactive)
GI50 (CCRF-CEM): > 100 µM (inactive)
GI50 (HCC 2998): > 100 µM (inactive)
GI50 (HOP-92): 24.9 µM (inactive)
GI50 (HT-29): > 100 µM (inactive)
GI50 (Hs-578T): > 100 µM (inactive)
GI50 (IGROV-1): > 100 µM (inactive)
GI50 (NCI-H226): > 100 µM (inactive)
GI50 (NCI-H23): > 100 µM (inactive)
GI50 (OVCAR-3): > 100 µM (inactive)
GI50 (OVCAR-8): > 100 µM (inactive)
GI50 (SK-MEL-28): > 100 µM (inactive)
GI50 (SN12C): > 100 µM (inactive)
GI50 (SNB-19): > 100 µM (inactive)
GI50 (SNB-75): > 100 µM (inactive)
GI50 (SW-620): > 100 µM (inactive)
GI50 (UACC-257): > 100 µM (inactive)

CC(=O)Nc1ccc2nc(-c3ccccn3)c(-c3ccccn3)nc2c1
GI50 (A498): > 100 µM (inactive)
GI50 (A549): > 100 µM (inactive)
GI50 (CCRF-CEM): > 100 µM (inactive)
GI50 (HCC 2998): > 100 µM (inactive)
GI50 (HOP-92): > 100 µM (inactive)
GI50 (Hs-578T): > 100 µM (inactive)
GI50 (IGROV-1): > 100 µM (inactive)
GI50 (NCI-H226): > 100 µM (inactive)
GI50 (OVCAR-3): > 100 µM (inactive)
GI50 (OVCAR-8): > 100 µM (inactive)
GI50 (SK-MEL-28): > 100 µM (inactive)
GI50 (SN12C): > 100 µM (inactive)
GI50 (SNB-19): > 100 µM (inactive)
GI50 (SNB-75): > 100 µM (inactive)
GI50 (SW-620): > 100 µM (inactive)
GI50 (UACC-257): > 100 µM (inactive)
GI50 (UACC-62): > 100 µM (inactive)

COC1(OC)N=C(N)C2(C#N)C(c3ccccc3)NC3=C(CCC3)C12C#N (configuration not stated)
GI50 (A498): > 100 µM (inactive)
GI50 (A549): > 100 µM (inactive)
GI50 (CCRF-CEM): > 100 µM (inactive)
GI50 (HCC 2998): > 100 µM (inactive)
GI50 (HOP-92): > 100 µM (inactive)
GI50 (HT-29): > 100 µM (inactive)
GI50 (Hs-578T): > 100 µM (inactive)
GI50 (IGROV-1): > 100 µM (inactive)
GI50 (NCI-H226): > 100 µM (inactive)
GI50 (NCI-H23): > 100 µM (inactive)
GI50 (OVCAR-8): > 100 µM (inactive)
GI50 (SK-MEL-28): > 100 µM (inactive)
GI50 (SK-OV-3): > 100 µM (inactive)
GI50 (SN12C): > 100 µM (inactive)
GI50 (SNB-19): > 100 µM (inactive)
GI50 (SW-620): > 100 µM (inactive)
GI50 (UACC-257): > 100 µM (inactive)
GI50 (UACC-62): > 100 µM (inactive)

CCOC(=O)/C=C(/C)Nc1nc2c(c(C(=O)OC)c1C#N)CCCC2
GI50 (A498): > 100 µM (inactive)
GI50 (A549): > 100 µM (inactive)
GI50 (CCRF-CEM): > 100 µM (inactive)
GI50 (HCC 2998): > 100 µM (inactive)
GI50 (HOP-92): > 100 µM (inactive)
GI50 (HT-29): > 100 µM (inactive)
GI50 (Hs-578T): > 100 µM (inactive)
GI50 (IGROV-1): > 100 µM (inactive)
GI50 (NCI-H226): > 100 µM (inactive)
GI50 (NCI-H23): > 100 µM (inactive)
GI50 (OVCAR-8): > 100 µM (inactive)
GI50 (SK-MEL-28): > 100 µM (inactive)
GI50 (SK-OV-3): > 100 µM (inactive)
GI50 (SN12C): > 100 µM (inactive)
GI50 (SNB-19): > 100 µM (inactive)
GI50 (SW-620): > 100 µM (inactive)
GI50 (UACC-257): > 100 µM (inactive)
GI50 (UACC-62): > 100 µM (inactive)

COc1ccc(NC(=S)Nc2cc(C)ccn2)cc1
GI50 (A498): > 100 µM (inactive)
GI50 (CCRF-CEM): > 100 µM (inactive)
GI50 (HCC 2998): > 100 µM (inactive)
GI50 (HOP-92): > 100 µM (inactive)
GI50 (HT-29): > 100 µM (inactive)
GI50 (Hs-578T): > 100 µM (inactive)
GI50 (IGROV-1): > 100 µM (inactive)
GI50 (NCI-H226): > 100 µM (inactive)
GI50 (NCI-H23): > 100 µM (inactive)
GI50 (OVCAR-8): > 100 µM (inactive)
GI50 (SK-MEL-28): > 100 µM (inactive)
GI50 (SNB-19): > 100 µM (inactive)
GI50 (SNB-75): > 100 µM (inactive)
GI50 (SW-620): > 100 µM (inactive)
GI50 (UACC-257): > 100 µM (inactive)
GI50 (UACC-62): > 100 µM (inactive)

COC(=O)/C(C#N)=C(\Nc1ccccc1)N1CCCCC1
GI50 (A498): > 100 µM (inactive)
GI50 (A549): > 100 µM (inactive)
GI50 (HCC 2998): > 100 µM (inactive)
GI50 (HOP-92): > 100 µM (inactive)
GI50 (HT-29): > 100 µM (inactive)
GI50 (Hs-578T): > 100 µM (inactive)
GI50 (IGROV-1): > 100 µM (inactive)
GI50 (NCI-H226): > 100 µM (inactive)
GI50 (NCI-H23): > 100 µM (inactive)
GI50 (OVCAR-3): > 100 µM (inactive)
GI50 (OVCAR-8): > 100 µM (inactive)
GI50 (SK-MEL-28): > 100 µM (inactive)
GI50 (SK-OV-3): > 100 µM (inactive)
GI50 (SN12C): > 100 µM (inactive)
GI50 (SNB-19): > 100 µM (inactive)
GI50 (SNB-75): > 100 µM (inactive)
GI50 (SW-620): > 100 µM (inactive)
GI50 (UACC-257): > 100 µM (inactive)

COC(=O)CN1CCN(c2cccc3c2CCCC3)CC1
GI50 (A498): > 100 µM (inactive)
GI50 (A549): 69.5 µM (inactive)
GI50 (CCRF-CEM): 47.9 µM (inactive)
GI50 (HCC 2998): 29.6 µM (inactive)
GI50 (HOP-92): 0.0248 µM (active)
GI50 (HT-29): 18.2 µM (inactive)
GI50 (Hs-578T): > 100 µM (inactive)
GI50 (IGROV-1): > 100 µM (inactive)
GI50 (NCI-H226): 23.4 µM (inactive)
GI50 (NCI-H23): 13.9 µM (inactive)
GI50 (OVCAR-3): 19.9 µM (inactive)
GI50 (OVCAR-8): > 100 µM (inactive)
GI50 (SN12C): 56 µM (inactive)
GI50 (SNB-19): > 100 µM (inactive)
GI50 (SNB-75): 43.6 µM (inactive)
GI50 (SW-620): > 100 µM (inactive)
GI50 (UACC-257): 50.6 µM (inactive)
GI50 (UACC-62): > 100 µM (inactive)

CC(=O)OCCn1c(Cc2ccc(Cl)cc2)nn(C(C)=O)c1=O
GI50 (A498): > 100 µM (inactive)
GI50 (A549): > 100 µM (inactive)
GI50 (CCRF-CEM): > 100 µM (inactive)
GI50 (HCC 2998): > 100 µM (inactive)
GI50 (HOP-92): > 100 µM (inactive)
GI50 (HT-29): > 100 µM (inactive)
GI50 (Hs-578T): > 100 µM (inactive)
GI50 (IGROV-1): > 100 µM (inactive)
GI50 (NCI-H226): > 100 µM (inactive)
GI50 (NCI-H23): > 100 µM (inactive)
GI50 (OVCAR-3): > 100 µM (inactive)
GI50 (OVCAR-8): > 100 µM (inactive)
GI50 (SK-MEL-28): > 100 µM (inactive)
GI50 (SK-OV-3): > 100 µM (inactive)
GI50 (SN12C): > 100 µM (inactive)
GI50 (SNB-19): > 100 µM (inactive)
GI50 (SW-620): > 100 µM (inactive)
GI50 (UACC-257): > 100 µM (inactive)
GI50 (UACC-62): > 100 µM (inactive)
